The target of assay [1] is Tyrosine-protein kinase Fyn (Homo sapiens, UniProt P06241). The assay is described as follows: (§1) Radioisotope Filter Binding Assay: IC50 Table 13-20: The protocol calls for test compound of the invention to be incubated with kinase, substrate, cofactors, and radio-isotope-labeled ATP (33P-gamma-ATP). The reaction mixtures are then spotted onto filter papers which bind the radioisotope labeled catalytic product. Unreacted phosphate is removed via washing. The reagents used include base reaction buffer; 20 mM Hepes (pH 7.5), 10 mM MgCl2, 1 mM EGTA, 0.02% Brij35, 0.02 mg/ml BSA, 0.1 mM Na3VO4, 2 mM DTT, 1% DMSO. The reaction procedure include the following steps: (1) prepare indicated substrate in freshly prepared base reaction buffer, (2) deliver any required cofactors to the substrate solution above, (3) deliver indicated kinase into the substrate solution and gently mix, (4) deliver compounds in DMSO into the kinase reaction mixture by Acoustic technology (Echo550; nanoliter range), incubate for 20 minutes at room temperature, (5) deliver 33P-ATP (specific activity 10 μCi/μL) into the reaction mixture to initiate the reaction, (6) incubate kinase reaction for 2 hours at room temperature, (7) reactions are spotted onto P81 ion exchange paper, (8) detect kinase activity by filter-binding method.

Assay [2] addresses T1, Phosphatidylinositol 4,5-bisphosphate 3-kinase catalytic subunit delta isoform (Homo sapiens, UniProt O00329).
T1 sequence (O00329 whole entry): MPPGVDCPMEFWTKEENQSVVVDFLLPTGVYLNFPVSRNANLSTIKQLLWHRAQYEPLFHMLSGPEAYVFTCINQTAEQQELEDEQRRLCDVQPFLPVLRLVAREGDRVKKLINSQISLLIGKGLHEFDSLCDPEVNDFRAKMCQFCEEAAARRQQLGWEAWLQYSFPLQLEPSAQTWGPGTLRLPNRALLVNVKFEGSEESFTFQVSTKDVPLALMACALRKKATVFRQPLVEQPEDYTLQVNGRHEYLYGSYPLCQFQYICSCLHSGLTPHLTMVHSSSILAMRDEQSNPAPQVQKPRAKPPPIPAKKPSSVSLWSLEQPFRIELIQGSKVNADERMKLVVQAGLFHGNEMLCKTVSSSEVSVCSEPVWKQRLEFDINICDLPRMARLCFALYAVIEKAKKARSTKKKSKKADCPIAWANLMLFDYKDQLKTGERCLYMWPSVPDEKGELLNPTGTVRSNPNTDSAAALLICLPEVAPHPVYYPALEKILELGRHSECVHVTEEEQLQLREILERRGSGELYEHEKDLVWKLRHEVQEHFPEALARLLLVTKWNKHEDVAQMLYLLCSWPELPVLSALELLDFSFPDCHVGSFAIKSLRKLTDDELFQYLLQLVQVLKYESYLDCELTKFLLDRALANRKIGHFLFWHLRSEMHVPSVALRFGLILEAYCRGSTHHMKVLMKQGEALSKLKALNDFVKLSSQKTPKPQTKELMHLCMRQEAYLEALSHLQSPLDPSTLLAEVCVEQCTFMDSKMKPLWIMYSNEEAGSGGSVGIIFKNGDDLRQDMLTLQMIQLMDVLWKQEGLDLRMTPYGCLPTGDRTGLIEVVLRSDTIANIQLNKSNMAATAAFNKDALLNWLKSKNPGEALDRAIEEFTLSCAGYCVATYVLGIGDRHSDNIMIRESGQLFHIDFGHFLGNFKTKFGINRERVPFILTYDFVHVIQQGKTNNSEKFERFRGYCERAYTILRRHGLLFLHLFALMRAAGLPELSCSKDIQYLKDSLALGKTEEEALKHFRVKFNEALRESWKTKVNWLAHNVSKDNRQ
Described as §1.

Sequence of Tyrosine-protein kinase Fyn (P06241 whole entry): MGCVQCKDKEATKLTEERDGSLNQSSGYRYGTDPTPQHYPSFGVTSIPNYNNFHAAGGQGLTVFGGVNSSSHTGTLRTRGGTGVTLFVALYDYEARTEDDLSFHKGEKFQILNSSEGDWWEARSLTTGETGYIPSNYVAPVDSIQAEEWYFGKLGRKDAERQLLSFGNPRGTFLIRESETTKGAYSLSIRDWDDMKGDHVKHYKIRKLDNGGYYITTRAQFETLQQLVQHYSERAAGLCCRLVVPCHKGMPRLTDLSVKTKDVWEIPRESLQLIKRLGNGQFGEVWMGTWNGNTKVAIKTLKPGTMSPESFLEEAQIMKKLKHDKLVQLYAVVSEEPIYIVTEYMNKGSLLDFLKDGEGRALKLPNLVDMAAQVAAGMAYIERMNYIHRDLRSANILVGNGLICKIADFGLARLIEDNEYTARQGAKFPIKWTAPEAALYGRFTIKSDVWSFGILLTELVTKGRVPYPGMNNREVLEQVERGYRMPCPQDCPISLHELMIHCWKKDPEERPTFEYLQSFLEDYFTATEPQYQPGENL

Broadly, the IC50 is the concentration needed to halve the response being measured. Consider `Nc1ncnc2c1c(-c1ccc(Oc3ccccc3)c(F)c1)nn2CC1SSCC1OC(=O)c1ccccc1` (configuration not stated), for which the IC50 in assay [1] was found to be 750 nM.
Regarding `Nc1nc2cc(-c3nn(C[C@@H]4SSC[C@H]4OC(=O)c4ccccc4)c4ncnc(N)c34)ccc2o1` (relative stereo), in assay [2], the IC50 was determined as 750 nM.

Values taken from ChEMBL document CHEMBL5728119, “1,2-dithiolane compounds useful in neuroprotection, autoimmune and cancer diseases and conditions” (2020).
